IC50 data for 27 compounds are collected here from patent publication US12624018B1, “Inhibitors of RIPK2 and medical uses thereof” (Odyssey Therapeutics, Inc., priority 2022, dated 2026).

Where only a bound is given, the exact number is not on record here.

The first assay deals with T1, RIPK2 enzyme (Homo sapiens, UniProt O43353).
T1 construct: purchased Carna 09-128
T1 sequence (O43353 1-299 limits assumed): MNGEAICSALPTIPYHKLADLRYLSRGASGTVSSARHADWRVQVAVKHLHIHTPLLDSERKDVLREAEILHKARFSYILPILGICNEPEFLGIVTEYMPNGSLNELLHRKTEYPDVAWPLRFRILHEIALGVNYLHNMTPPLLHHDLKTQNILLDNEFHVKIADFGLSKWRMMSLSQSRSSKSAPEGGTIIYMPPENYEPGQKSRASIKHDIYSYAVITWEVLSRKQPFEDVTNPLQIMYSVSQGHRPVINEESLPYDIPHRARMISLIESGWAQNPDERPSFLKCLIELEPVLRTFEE
Description: RIPK2 inhibition (ADP-Glo Kinase Assay). It counts as biochemical. The following applies: RIPK2 5 nM, ATP 150 μM, MBP substrate, read-out: RIPK2 IC50. A digest of the protocol: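 Human RIPK2 (5 nM) preincubated with compound 30 min at room temperature in 50 mM HEPES pH 7.5, 10 mM MgCl2, 2 mM DTT, 1 mM EGTA, 0.01% Brij-35, 0.05% BSA; native swine MBP as substrate. ADP formed quantified by ADP-Glo luminescence; percent inhibition relative to DMSO and no-enzyme controls.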
On to `Cc1c(Oc2ccnc3ccc(C(=O)N4CCNCC4)cc23)ccc(CC(=O)Nc2cnn(C(C)(C)C)c2)c1F` [Compound 356, N-(1-(tert-butyl)-1H-pyrazol-4-yl)-2-(2-fluoro-3-methyl-4-((6-(piperazine-1-carbonyl)quinolin-4-yl)oxy)phenyl) acetamide], for which the IC50 (usually the concentration that inhibits the measured activity by half) is under 2.5 nM.

Regarding `Cc1c(Oc2ccnc3ccc(C(=O)N4CCC(O)CC4)cc23)ccc(CC(=O)Nc2cnn(C(C)(C)C)c2)c1F` [Compound 357, N-(1-(tert-butyl)-1H-pyrazol-4-yl)-2-(2-fluoro-4-((6-(4-hydroxy-piperidine-1-carbonyl)quinolin-4-yl)oxy)-3-methyl-phenyl) acetamide], the IC50 was under 2.5 nM.

Consider `Cc1cc(CC(=O)Nc2cnn(C(C)(C)C)c2)c(F)cc1Oc1ccnc2ccc(C(=O)O)cc12` [Compound 358, 4-(4-(2-((1-(tert-butyl)-1H-pyrazol-4-yl)amino)-2-oxoethyl)-5-fluoro-2-methyl-phenoxy) quinoline-6-carboxylic acid], for which the half-inhibitory concentration (IC50) was under 2.5 nM.

On to `Cc1cc(CC(=O)Nc2cnn(C(C)(C)C)c2)c(F)cc1Oc1ccnc2ccc(C(=O)N(C)C)cc12` [Compound 361, 4-(4-(2-((1-(tert-butyl)-1H-pyrazol-4-yl)amino)-2-oxoethyl)-5-fluoro-2-methyl-phenoxy)-N,N-dimethyl-quinoline-6-carboxamide], for which the IC50 was under 2.5 nM.

As to `Cc1cc(CC(=O)Nc2cnn(C(C)(C)C)c2)c(F)cc1Oc1ccnc2ccc(C(=O)NCC(F)(F)F)cc12` [Compound 362, 4-(4-(2-((1-(tert-butyl)-1H-pyrazol-4-yl)amino)-2-oxoethyl)-5-fluoro-2-methyl-phenoxy)-N-(2,2,2-trifluoroethyl) quinoline-6-carboxamide], the IC50 is under 2.5 nM.

Take `CCNC(=O)c1ccc2nccc(Oc3cc(F)c(CC(=O)Nc4cnn(C(C)(C)C)c4)cc3C)c2c1` [Compound 363, 4-(4-(2-((1-(tert-butyl)-1H-pyrazol-4-yl)amino)-2-oxoethyl)-5-fluoro-2-methyl-phenoxy)-N-ethyl-quinoline-6-carboxamide]: the IC50 was under 2.5 nM.

With `Cc1cc(CC(=O)Nc2cnn(C(C)(C)C)c2)c(F)cc1Oc1ccnc2ccc(C(=O)NCCO)cc12` [Compound 364, 4-(4-(2-((1-(tert-butyl)-1H-pyrazol-4-yl)amino)-2-oxoethyl)-5-fluoro-2-methyl-phenoxy)-N-(2-hydroxy-ethyl) quinoline-6-carboxamide], the IC50 is under 2.5 nM.

Regarding `Cc1cc(CC(=O)Nc2cnn(C(C)(C)C)c2)c(F)cc1Oc1ccnc2ccc(C(=O)N(C)CCO)cc12` [Compound 365, 4-(4-(2-((1-(tert-butyl)-1H-pyrazol-4-yl)amino)-2-oxoethyl)-5-fluoro-2-methyl-phenoxy)-N-(2-hydroxy-ethyl)-N-methyl-quinoline-6-carboxamide], the IC50 is under 2.5 nM.

Take `Cc1cc(CC(=O)Nc2cnn(C(C)(C)C)c2)c(F)cc1Oc1ccnc2ccc(C(=O)N(CCO)CCO)cc12` [Compound 366, 4-(4-(2-((1-(tert-butyl)-1H-pyrazol-4-yl)amino)-2-oxoethyl)-5-fluoro-2-methyl-phenoxy)-N,N-bis(2-hydroxyethyl) quinoline-6-carboxamide]: the half-inhibitory concentration (IC50) is under 2.5 nM.

With `COCCNC(=O)c1ccc2nccc(Oc3cc(F)c(CC(=O)Nc4cnn(C(C)(C)C)c4)cc3C)c2c1` [Compound 367, 4-(4-(2-((1-(tert-butyl)-1H-pyrazol-4-yl)amino)-2-oxoethyl)-5-fluoro-2-methyl-phenoxy)-N-(2-methoxy-ethyl) quinoline-6-carboxamide], the IC50 is under 2.5 nM.

As to `Cc1cc(CC(=O)Nc2cnn(C(C)(C)C)c2)c(F)cc1Oc1ccnc2ccc(C(=O)N3CCC3)cc12` [Compound 369, 2-(4-((6-(azetidine-1-carbonyl)quinolin-4-yl)oxy)-2-fluoro-5-methyl-phenyl)-N-(1-(tert-butyl)-1H-pyrazol-4-yl)acetamide], the concentration for half-maximal inhibition (IC50) is under 2.5 nM.

Turning to `Cc1cc(CC(=O)Nc2cnn(C(C)(C)C)c2)c(F)cc1Oc1ccnc2ccc(C(=O)N3CC(F)C3)cc12` [Compound 370, N-(1-(tert-butyl)-1H-pyrazol-4-yl)-2-(2-fluoro-4-((6-(3-fluoro-azetidine-1-carbonyl)quinolin-4-yl)oxy)-5-methyl-phenyl) acetamide], the IC50 was under 2.5 nM.

With `Cc1cc(CC(=O)Nc2cnn(C(C)(C)C)c2)c(F)cc1Oc1ccnc2ccc(C(=O)N3CC(C#N)C3)cc12` [Compound 371, N-(1-(tert-butyl)-1H-pyrazol-4-yl)-2-(4-((6-(3-cyano-azetidine-1-carbonyl)quinolin-4-yl)oxy)-2-fluoro-5-methyl-phenyl) acetamide], the IC50 was under 2.5 nM.

For `Cc1cc(CC(=O)Nc2cnn(C(C)(C)C)c2)c(F)cc1Oc1ccnc2ccc(C(=O)N3CC4(COC4)C3)cc12` [Compound 372, 2-(4-((6-(2-oxa-6-azaspiro[3.3]heptane-6-carbonyl)quinolin-4-yl)oxy)-2-fluoro-5-methyl-phenyl)-N-(1-(tert-butyl)-1H-pyrazol-4-yl)acetamide], the IC50 was under 2.5 nM.

In the case of `Cc1cc(CC(=O)Nc2cnn(C(C)(C)C)c2)c(F)cc1Oc1ccnc2ccc(C(=O)N3CC(O)C3)cc12` [Compound 373, N-(1-(tert-butyl)-1H-pyrazol-4-yl)-2-(2-fluoro-4-((6-(3-hydroxy-azetidine-1-carbonyl)quinolin-4-yl)oxy)-5-methylphenyl) acetamide], the half-maximal inhibitory concentration (IC50) was under 2.5 nM.

As for `Cc1cc(CC(=O)Nc2cnn(C(C)(C)C)c2)c(F)cc1Oc1ccnc2ccc(C(=O)N3CC(N)C3)cc12` [Compound 374, 2-(4-((6-(3-amino-azetidine-1-carbonyl)quinolin-4-yl)oxy)-2-fluoro-5-methyl-phenyl)-N-(1-(tert-butyl)-1H-pyrazol-4-yl)acetamide], the 50% inhibitory concentration (IC50) is under 2.5 nM.

On to `Cc1cc(CC(=O)Nc2cnn(C(C)(C)C)c2)c(F)cc1Oc1ccnc2ccc(C(=O)N3CCCC3)cc12` [Compound 377, N-(1-(tert-butyl)-1H-pyrazol-4-yl)-2-(2-fluoro-5-methyl-4-((6-(pyrrolidine-1-carbonyl)quinolin-4-yl)oxy)phenyl) acetamide], for which the IC50 was under 2.5 nM.

As to `Cc1cc(CC(=O)Nc2cnn(C(C)(C)C)c2)c(F)cc1Oc1ccnc2ccc(C(=O)N3CCOCC3)cc12` [Compound 378, N-(1-(tert-butyl)-1H-pyrazol-4-yl)-2-(2-fluoro-5-methyl-4-((6-(morpholine-4-carbonyl)quinolin-4-yl)oxy)phenyl) acetamide], the IC50 is under 2.5 nM.

`Cc1cc(CC(=O)Nc2cnn(C(C)(C)C)c2)c(F)cc1Oc1ccnc2ccc(C(=O)N3CCNCC3)cc12` [Compound 379, N-(1-(tert-butyl)-1H-pyrazol-4-yl)-2-(2-fluoro-5-methyl-4-((6-(piperazine-1-carbonyl)quinolin-4-yl)oxy)phenyl) acetamide]: the IC50 was under 2.5 nM.

As to `Cc1cc(CC(=O)Nc2cnn(C(C)(C)C)c2)c(F)cc1Oc1ccnc2ccc(C(=O)N3CCC(O)CC3)cc12` [Compound 380, N-(1-(tert-butyl)-1H-pyrazol-4-yl)-2-(2-fluoro-4-((6-(4-hydroxy-piperidine-1-carbonyl)quinolin-4-yl)oxy)-5-methyl-phenyl) acetamide], the IC50 is under 2.5 nM.

As for `Cc1cc(CC(=O)Nc2cnn(C(C)(C)C)c2)c(F)cc1Oc1ccnc2ccc(P(C)(C)=O)cc12` [Compound 381, N-(1-(tert-butyl)-1H-pyrazol-4-yl)-2-(4-((6-(dimethylphosphoryl)quinolin-4-yl)oxy)-2-fluoro-5-methylphenyl) acetamide], the IC50 is under 2.5 nM.

As for `COc1cc2nccc(Oc3ccc(CC(=O)Nc4cnn(C(C)(C)C)c4)c(F)c3C)c2cc1P(C)(C)=O` [Compound 382, N-(1-(tert-butyl)-1H-pyrazol-4-yl)-2-(4-((6-(dimethylphosphoryl)-7-methoxyquinolin-4-yl)oxy)-2-fluoro-3-methylphenyl) acetamide], the IC50 was under 2.5 nM.

With `Cc1c(Oc2ccnc3ccc(P(C)(C)=O)cc23)ccc(CC(=O)Nc2cc(C(C)(C)C)n[nH]2)c1F` [Compound 383, N-(5-(tert-butyl)-1H-pyrazol-3-yl)-2-(4-((6-(dimethylphosphoryl)quinolin-4-yl)oxy)-2-fluoro-3-methylphenyl) acetamide], the IC50 is under 2.5 nM.

In the case of `Cc1c(Oc2ccnc3ccc(C(=O)N4C[C@@H](C)O[C@@H](C)C4)cc23)ccc(CC(=O)Nc2cnn(C(C)(C)C)c2)c1F` [Compound 384, N-(1-(tert-butyl)-1H-pyrazol-4-yl)-2-(4-((6-((2R,6S)-2,6-dimethyl-morpholine-4-carbonyl)quinolin-4-yl)oxy)-2-fluoro-3-methyl-phenyl) acetamide], the 50% inhibitory concentration (IC50) was under 2.5 nM.

In the case of `Cc1c(Oc2ccnc3ccc(C(=O)N4C[C@@H](C)N[C@@H](C)C4)cc23)ccc(CC(=O)Nc2cnn(C(C)(C)C)c2)c1F` [Compound 385, N-(1-(tert-butyl)-1H-pyrazol-4-yl)-2-(4-((6-((3R,5S)-3,5-dimethyl-piperazine-1-carbonyl)quinolin-4-yl)oxy)-2-fluoro-3-methylphenyl) acetamide], the IC50 was under 2.5 nM.

For the compound `Cc1c(Oc2ccnc3ccc(S(=O)(=O)N4C[C@@H](C)O[C@@H](C)C4)cc23)ccc(CC(=O)Nc2cnn(C(C)(C)C)c2)c1F` [Compound 386, N-(1-(tert-butyl)-1H-pyrazol-4-yl)-2-(4-((6-(((2R,6S)-2,6-dimethylmorpholino)sulfonyl)quinolin-4-yl)oxy)-2-fluoro-3-methylphenyl)acetamide], the IC50 is under 2.5 nM.

Still in this assay, the particulars now being: RIPK2 IC50 (nM), RIPK2 5 nM, ATP 150 μM, MBP substrate.
Take `COCCN(C)C(=O)c1ccc2nccc(Oc3cc(F)c(CC(=O)Nc4cnn(C(C)(C)C)c4)cc3C)c2c1` [Compound 368, 4-(4-(2-((1-(tert-butyl)-1H-pyrazol-4-yl)amino)-2-oxoethyl)-5-fluoro-2-methyl-phenoxy)-N-(2-methoxy-ethyl)-N-methyl-quinoline-6-carboxamide]: the IC50 was under 2.5 nM.
